Assay results: BigSolDB 2.1

O=C(O)[C@@H](O)CCc1ccccc1
solubility (mole fraction)
Details	in ethyl acetate	in toluene	in water
278.2 K	0.107	–	–
283.2 K	0.117	–	0.00071
288.2 K	0.128	0.0013	0.00094
293.2 K	0.14	0.00169	0.00107
298.2 K	0.15	0.00235	0.00137
303.2 K	0.16	0.00298	0.00172
308.2 K	0.174	0.00407	0.00229
313.2 K	0.182	0.00555	0.00311
318.2 K	–	0.00729	0.00406
323.2 K	–	0.00996	0.00701
328.2 K	–	0.0127	0.0142
333.2 K	–	0.0173	0.044
338.2 K	–	0.0238	–
343.2 K	–	0.0341	–
